Experimental data reported in a melting point compilation (Tetko et al.; mined from patent text by program, amines drawn as free bases though some values may be those of a salt).

Row | Compound | melting point [°C]
1 | Cc1cccc(C(=O)C=C2CCCN2C)c1 | 60 to 62
2 | CNC(=S)Nc1ccccc1N1CCCC1 | 125 to 126
3 | Cc1c(C)c2c(c(C)c1NC(=O)c1ccc(C(=O)O)cc1)C(c1ccc(C(C)C)cc1)C(C)(C)O2 (configuration not stated) | 258 to 261
4 | Nc1nc2c(ncn2[C@@H]2C[C@H](O)[C@@H](O)[C@H]2O)c(=O)[nH]1 (racemic) | 295
5 | O=Cc1ccc(S(=O)(=O)CCCl)cc1Cl | 117 to 119
6 | CCCOCN(C(=O)CCl)c1c(OC)cccc1OC | 83 to 85
7 | COC(=O)CCC(C(=O)C=Cc1ccc(OC(C)=O)c(OC(F)(F)F)c1)C(=O)C=Cc1ccc(OC(C)=O)c(OC(F)(F)F)c1 (configuration not stated) | 149 to 150
8 | CCOC(=O)N1CCN(Cc2nc3cccnc3n2CCO)CC1 | 117
9 | CCCCCc1ccc(-c2ncc([C@H]3CC[C@H](CCC)CC3)cn2)cc1 | 93.5
10 | CSc1sc(C(=O)N2CCCCCC2)c2c1C(=O)CC(C)(C)C2 | 168 to 170
11 | Cn1cnc(S(=O)(=O)NCCCCCCNS(=O)(=O)c2cn(C)cn2)c1 | 153 to 154
12 | CCN[C@H]1CCC[C@H](Oc2ccc3[nH]ncc3c2C)C1 (relative stereo) | 95 to 97
13 | COc1ccc(C2=NN(C3CCN(CC(N)=O)CC3)C(=O)CC2)cc1OC | 180 to 182
14 | CS(=O)(=O)NCCS(=O)(=O)N1CCN(S(=O)(=O)c2ccc(-c3ccc(Cl)cc3)s2)[C@@H](C(=O)NO)C1 | 118 to 122
15 | COc1ccc2c3c(cnc2c1)CCCC3O[Si](C)(C)C(C)(C)C (configuration not stated) | 102 to 104
16 | COC(=O)c1cc2nccnc2c(Cl)c1N | 182 to 184
17 | O=C(O)CCCCCCCCNS(=O)(=O)c1ccc(Cl)cc1 | 121 to 123
18 | O=C(N[C@H]1CC[C@H](CCN2CCN(c3nccc4c3OCC4)CC2)CC1)c1ccc2ncccc2c1 | 212
19 | CCOC(=O)c1cn(C2CC2)c2c(C)c(N3CCN(C)CC3)c(F)c(C)c2c1=O | 146 to 147
20 | COC(=O)C1=C(O)c2cc(Cl)sc2S(=O)(=O)N1 | 173 to 174
21 | CN(CCO)CC1(SSC2(CN(C)CCO)CCCCC2)CCCCC1 | 65 to 70
22 | COc1cc(C(=O)N2CCN(C(=O)c3cc(OC)c(OC)c(OC)c3)C(COC(=O)N3CCCCC3)C2)cc(OC)c1OC (configuration not stated) | 147

Row | Compound | melting point [°C]
23 | O=C(O)CCNC(=O)C(=Cc1ccc(C(F)(F)F)cc1)CS | 108
24 | N#Cc1cc(F)cc(-c2ccc3c(c2)C(C2CC2)(C2CC2)OC(=O)N3)c1 | 250 to 252
25 | NS(=O)(=O)c1cc(OC(F)F)ccc1OC(F)F | 73 to 74
26 | CCOC(=O)C1OC1C(=O)NC(CC(C)C)C(OC)c1ccccc1 (configuration not stated) | 108 to 109
27 | Fc1ccc(C(c2ccccc2Cl)N2CCN(CCCOC(c3ccccc3)c3ccccc3)CC2)cc1 (configuration not stated) | 98 to 99
28 | CCC(=O)Nc1cccc(NC(=O)CC(C)=O)c1 | 70
29 | CCn1c(=O)c2[nH]c(/C=C/c3ccc(OC)cc3OC)nc2n(CC)c1=O | 279 to 280
30 | CNC(=O)c1c(C(F)(F)F)nc(C(F)F)c(C(=O)OC)c1NC(C)C | 128 to 130
31 | Nc1nnc(-c2cc(Cl)cc(Cl)c2O)s1 | 268
32 | CC(=O)NCC1CN(c2ccc(N3CC4CCCN(C(=O)COC(C)=O)C4C3)c(F)c2)C(=O)O1 (configuration not stated) | 113 to 116
33 | COc1cc2c(Nc3ccc(Sc4nccn4C)c(Cl)c3)c(C#N)cnc2cc1OCCN1CCC(N2CCCC2)CC1 | 127 to 130
34 | COC(=O)c1ccc(NC(=O)NCCCl)cc1 | 163 to 165
35 | Cc1c(C#N)oc2c(-c3ccc(F)cc3)c(-c3ccc(S(N)(=O)=O)cc3)nn12 | 231 to 232
36 | COC(=O)c1cc(O)c2cc3c(O)cc(C(=O)OC)nc3c(C)c2n1 | 296
37 | O=C(O)CCn1cccc1Cn1ccnc1 | 127 to 128
38 | CC(C)(C)C(=O)NS(=O)(=O)c1cccc([N+](=O)[O-])c1 | 178 to 181
39 | COc1ccc(N2CCOCC2)c2sc(C#N)nc12 | 145 to 147
40 | OC(Cn1cncn1)(c1ccc(Cl)cc1)C(Cl)(Cl)C(Cl)Cl (configuration not stated) | 168 to 169
41 | O=C(O)c1cn(C2COC2)c2c(F)c(F)cc(F)c2c1=O | > 300
42 | Cc1nc(N)c(C#N)c(-c2ccco2)n1 | 317 to 320
43 | CCCCCCCCCCCCCCCC(=O)n1cc(F)c(=O)[nH]c1=O | 98

More lines, now with the values ahead:

Row | melting point [°C] | Compound
44 | 134 to 136 | CCOC(=O)c1cccc2c1Nc1ccc(C(=O)c3ccccc3)cc1N2Cc1ccccc1
45 | 97 to 99.4 | COCCc1ccc(-c2ccc(I)cc2)cc1
46 | 116 to 117 | CC(C)Oc1cccc(C=C(C=O)C(C=O)=Cc2cccc(OC(C)C)c2)c1
47 | 135 to 137 | O=c1c(N2CCNCC2)nc2ccccc2n1-c1ccccc1Cl
48 | 128 to 129 | CSc1cccc(Oc2ncc(F)cc2C(=O)N[C@@H]2CCCC[C@H]2CO)c1 (relative stereo)
49 | 156 to 157 | CC(C)(C)OC(=O)Cn1c(C(=O)O)cc2ccccc21
50 | 77 to 79 | CC(C)(c1ccccc1)C(Sc1ccc(Cl)cc1)n1ccnc1 (configuration not stated)
51 | 110 | CCCCc1nc2ccc([C@H]3C[C@H](CO)ON3C)cc2c(=O)n1Cc1ccc(-c2ccccc2-c2nnn[nH]2)cc1 (relative stereo)
52 | 146 | COC(=O)c1ccc2cc(C(=O)c3ccc4c(c3)C3(C)C5(C)CCC(C5)C3(C)O4)ccc2c1 (configuration not stated)
53 | 88 to 94 | CC1N(C(=O)c2ccc(OCC(F)(F)C(F)F)cc2)CC(=O)OC1(Cn1cncn1)c1ccc(Cl)cc1Cl (configuration not stated)
54 | 256 to 258 | Cc1nc(NC(=O)c2ccc(C#N)cc2)sc1C(=O)NCc1ccccc1
55 | 73 to 74 | CCNC(=O)OCCOc1ccc(Oc2cccc(Cl)c2)cc1Cl
56 | 164 to 165 | CC(C)N(CCN1C(=O)/C(=N/NC(=O)NCc2ccccc2)c2ccccc21)C(C)C
57 | 95 to 97 | CC(C)(C)c1cc(C(=O)c2ccccn2)cc2c1OCC2(C)C
58 | 107 to 108 | Cc1c(-c2cn(C)c3c(-c4ccccc4)cccc23)nc2ccc(F)cc2c1C(=O)O
59 | 117 to 126 | CCc1nc2c(C)cc(C)nc2n1Cc1ccc(C(c2ccccc2)C(Br)C(=O)O)cc1 (configuration not stated)
60 | 192 to 193 | NC(=O)CC(C(N)=O)(c1ccc(F)cc1)c1ccc(F)cc1
61 | 142 to 144 | COc1ncc(C(F)(F)F)cc1-c1cccn2nc(Nc3ccc(C4CCN(C(=O)OC(C)(C)C)CC4)cc3)nc12
62 | 144 to 146 | CC(C)(Oc1ccc(C(=O)c2ccc(Cl)cc2)cc1)C(=O)NCC(=O)O
63 | 184 to 190 | CN1C(=O)CN(NC(=O)CNC(=O)OCc2ccccc2)C(c2ccccc2)c2cc(Cl)ccc21 (configuration not stated)
64 | 169 to 170 | CNC(=O)CCc1nc(-c2ccc(Cl)cc2)co1
65 | 249 to 251 | O=C(NCc1ccccc1)c1[nH]c2ccc(Cl)cc2c1S(=O)(=O)c1ccccc1
66 | 243 to 244 | CCn1cc(C(=O)O)c(=O)cc1-c1ccc(NC)c(C)c1
67 | 141 | COc1ccc(C(C)=Cc2ccc3ccccc3c2)cc1
68 | 148 to 150 | COc1ccc2[nH]c3ccccc3c2c1
69 | 193 | CSc1ccc(C=CC(N)=O)cc1
70 | 43 to 46 | CN(C)CCCCCCOc1ccc(C(=O)/C=C/c2ccccc2)cc1

Row | melting point [°C] | Compound
71 | 55 to 64 | CC(CCn1ccnc1)N=C1c2cccc3cccc(c23)N1C(c1ccccc1)c1ccccc1 (configuration not stated)
72 | 164 | CCOC(=O)C(=O)Nc1ccc(C#N)c2ccccc12
73 | 145 to 147 | COc1c(C=CC(=O)O)cccc1Oc1ccccc1Cl
74 | 186 to 188 | O=C1Cc2cccc(Sc3ccc(Cl)cc3)c2N1
75 | 168 to 170 | COP(=O)(Cc1cccc2cccc(CP(=O)(OC)OC)c12)OC
76 | > 250 | O=[N+]([O-])c1ccc2c(c1)Sc1cc(OC/C=C/I)ccc1N2
77 | 118 | c1ccc(COc2ccc(-n3nnnc3C3CC3)cc2)cc1
78 | 247 to 250 | O=[N+]([O-])c1ccc(CO)c(Nc2nccc(-c3cccnc3)n2)c1
79 | 204 to 205 | Cc1c(C)c(N2Cc3ccccc3C2)c(C)c2c1OC(C)(C)C2c1ccc(F)cc1 (configuration not stated)
80 | 226 to 228 | O=C(Nc1ccc(Cl)c(C(F)(F)F)c1)Nc1ccc(-c2ccc(C(F)(F)F)cc2)cc1-c1nnn[nH]1
81 | 103 to 105 | CCOC(Cc1ccc(OCCN2COc3ccccc3C2=O)cc1)C(=O)O (configuration not stated)
82 | 167 to 168 | COc1ccc(CN2CCN(CCCOc3ccc4c(C)cc(=O)[nH]c4c3)CC2)cc1
83 | 255 to 256 | Nc1nsc2nc3ccccc3n12
84 | 161 to 165 | Cc1cccc(S(=O)(=O)n2c(CCC(=O)O)cc3cc(Cl)ccc32)c1
85 | 165 to 167 | COc1ccc(-c2ncn(Cc3ccccc3)c2-c2ccc(OC)cc2)cc1
86 | 112 to 114 | NC(=O)C[C@H](NC(=O)CCc1ccc(OCc2ccccc2)cc1OCc1ccccc1)C(=O)N1CCN(Cc2ccccc2)CC1
87 | 110 to 113 | CCN(CC)CCNS(=O)(=O)c1ccc(Nc2ncnc3ccc(Cl)cc23)cc1
88 | 220 to 222 | COc1nc(-c2ccccc2)c2c(n1)N(c1ccccc1)C(=O)NC2
89 | 88 to 90 | CC(=CC#N)c1cccc2cc[nH]c12
90 | 138 to 139 | O=C(COc1noc(-c2ccccc2)c1Cl)NCCO[N+](=O)[O-]
91 | 145 to 147 | CC(C)=C(C#N)C(=O)OC(COc1ccc(C(=O)c2ccccc2)c(O)c1)COc1ccc(C(=O)c2ccccc2)c(O)c1
92 | 140 to 144 | O=c1[nH]c2cccnc2n1CCCN1CCC(C(O)(c2ccc(F)cc2)c2ccccn2)CC1 (configuration not stated)
93 | 202 to 205 | O=C1CCN(C(=O)N2CCN3C(=O)OC(c4ccccc4)(c4ccccc4)C3C2)c2ccccc21 (configuration not stated)
94 | 153 | CCCc1nc(Br)c(C(C)(O)C(=O)O)n1Cc1ccc(-c2ccccc2S(=O)(=O)NC(=O)NCc2ccccc2)cc1 (configuration not stated)
95 | > 250 | O=C(Nc1cccc2c(=O)nc[nH]c12)c1c(Cl)cccc1Cl
96 | 141 to 142 | CC(=O)Oc1ccc2c(ccc3ccccc32)c1
97 | 117 to 118 | CCOC(=O)/C=C/c1c2c(nn1-c1ccc(F)cc1)C(Cc1ccccc1)CCC2 (configuration not stated)
